Reference: patent US20180312493A1, “Antibiotic Compounds, Pharmaceutical Formulations Thereof And Methods And Uses Therefor” (Simon Fraser University, priority 2015, published 2018)
≈ marks a conversion by molar mass, not a printed value.

Legend:
S. aureus (ATCC29213) = test: In vitro susceptibility, broth microdilution (MIC); format: cell-based; conditions: Staphylococcus aureus; S. aureus ATCC29213; 18-24 h, 37 C; read-out: Antimicrobial activity (MIC) S. aureus ATCC29213
Source text: Epidemic methicillin resistant S. aureus (MRSA) strain sequenced at the Sanger Centre (MRSA252, NRS71) was obtained from NARSA (Network on Antimicrobial Resistance in S. aureus). Methicillin sensitive S. aureus (ATCC 29213 and 25923), methicillin resistant S. aureus (ATCC BAA-1762), and Salmonella typhimurium (ATCC BAA-185) were obtained from ATCC, The Global Bioresource Center. Acinetobacter baumannii (ATCC 19606 and ATCC 17978), Klebsiella pneumonia (C238), vancomycin resistant Enterococci #2 (2010A) (VRE#2), MRSA (USA400, MW2) and Pseudomonas aeruginosa (PA0-1) were obtained from the laboratory of Dr B. B. Finlay at the University of British Columbia (Vancouver, Canada).
The antimicrobial activities of PK inhibitor candidates were determined using the 96-well microtiter standard 2-fold serial broth microdilution method as described by CLSI (formerly NCCLS) with the various gram-positive and gram-negative bacteria species mentioned above. Bacteria from a single colony were grown, overnight in either BHI Broth (VRE), mueller hinton broth (S. aureus 29213; MRSA USA400, A. baumannii 19606, MRSA BAA-1762) or L-broth (P. aeruginosa, S. typhimurium, K. pneumonia and A. baumannii 17978). […] Culture plates were incubated for 18-24 h at 37° C., and optical density at 600 nm (OD600) was measured using a Benchmark Plus™ microplate spectrophotometer (Bio-Rad™). The absorbance control values for the series containing CAMHB and inhibitor were subtracted as background from the corresponding infected wells. Minimal inhibitory concentration (MIC) was defined as the lowest concentration of test compound leading to complete inhibition of cell growth in relation to compound-free control wells as determined by optical density. Vancomycin, methicillin and ciprofloxicin were used as reference compounds. All assays were run in triplicate or duplicate. Experiments were replicated at least twice to verify reproducibility using the above conditions.

MRSA Pyk = target: T1, MRSA Pyk (Staphylococcus aureus, UniProt Q6GG09); test: MRSA pyruvate kinase (PK) activity, continuous LDH-coupled assay; format: biochemical, methicillin resistant S. aureus (MRSA252)
T1 construct: made in house; host or cells: E. coli BL-21 (DE3)
T1 sequence (Q6GG09 whole entry): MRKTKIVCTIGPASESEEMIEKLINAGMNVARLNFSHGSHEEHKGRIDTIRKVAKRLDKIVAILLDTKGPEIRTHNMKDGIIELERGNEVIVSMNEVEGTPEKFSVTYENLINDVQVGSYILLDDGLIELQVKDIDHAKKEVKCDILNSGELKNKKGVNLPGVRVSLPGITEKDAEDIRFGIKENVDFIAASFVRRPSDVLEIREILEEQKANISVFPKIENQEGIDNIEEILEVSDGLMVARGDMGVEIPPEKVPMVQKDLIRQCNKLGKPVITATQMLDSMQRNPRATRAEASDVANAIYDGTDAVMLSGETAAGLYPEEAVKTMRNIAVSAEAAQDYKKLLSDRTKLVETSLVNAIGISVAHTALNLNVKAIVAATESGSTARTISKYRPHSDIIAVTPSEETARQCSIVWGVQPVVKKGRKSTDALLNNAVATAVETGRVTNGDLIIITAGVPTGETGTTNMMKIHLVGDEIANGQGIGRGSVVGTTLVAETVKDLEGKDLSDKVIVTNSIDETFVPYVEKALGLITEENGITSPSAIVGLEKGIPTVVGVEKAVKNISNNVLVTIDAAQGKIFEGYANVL
Source text: Genomic DNA of MRSA strain Sanger 252 extracted using DNeasy Tissue Kit™ (Qiagen™) was used as a template to generate the His-tagged MRSA PK. Human cDNA from MCF-7 breast cancer cell line (courtesy of Dr. J Wong, BC Cancer Research Center (Vancouver, Canada)) was used as a template to generate the full-length human M2 PK enzyme. The following primer sets were used creating appropriate restriction sites (NdeI and XhoI sites underlined): For cloning of MRSA PK: M27F 5′-[…]-3′ and M27R 5′-[…]-3′, for cloning of human M2 PK isoform: hM2F 5′-[…]-3′ and hM2R 5′-[…]-3′. The resulting PCR fragments for each construct were cloned into the NdeI and XhoI unique sites of the bacterial expression vector pET-28a (+) (Novagen™). […] The sequence and the correct reading frame of all constructs were verified by sequencing. Human M1, R and L PK constructs in pET-28-a(+) vectors (courtesy of Dr. L. Cantley, Harvard Medical, School (Boston, USA)) were used to generate relevant recombinant His-tagged human PK isoforms.
MRSA and human constructs in pET-28a(+) were used to express relevant recombinant PK proteins in E. coli BL-21 (DE3). The proteins were expressed and purified using Ni-NTA agarose (Qiagen™) according to the manufacturer's protocol. Briefly, cells were grown to an absorbance of 0.4-0.5 at 600 nm in 2×YT medium, then induced with 0.1 mM IPTG for 3 h at 20° C. Cells were lysed by sonication on ice (3×10-s bursts with a 30-s recovery between bursts) in lysis buffer (0.2 mg/ml lysozyme, 50 mM Tris pH 7.5, 10 mM MgCl2, 200 mM NaCl, 100 mM KCl, 10% glycerol, 10 mM imidazole, 0.5% NP-40 and 1 mM DTT containing Complete™ protease inhibitor). Cell lysates were cleared by centrifugation (18,000×g in a Beckman™ JA-20 rotor) for 20 min at 4° C. and PK isoforms were purified by batch binding to Ni-NTA resin. The resins were then packed in columns (1×2 cm) and washed with 400 column volumes lysis buffer containing 30 mM imidazole. His-tagged PK isoforms were eluted with the same buffer containing 300 mM imidazole. The proteins were dialyzed overnight at 4° C. against 2000 volumes of ice-cold 30 mM Tris pH 7.5, 25 mM KCl, 5 mM MgCl2, 10% glycerol and 1 mM DTT to remove imidazole. All purification steps were done at 4° C.; enzymes were flash-frozen and stored at −70° C. Enzymatic activity of frozen protein preparations was stable for at least 10 months and up to 5 freeze/thaw cycles. Purity and physical integrity of proteins were assessed using SDS-polyacrylamide gel electrophoresis (SDS-PAGE) followed by coomassie blue staining. Protein concentration was estimated by Bradford assay (Bio-Rad Protein Assay™) using bovine serum albumin as a standard.
Candidate MRSA PK inhibitors were assayed for their ability to inhibit enzymatic activities of MRSA and human PKs. PK activity was determined using a continuous assay coupled to lactate dehydrogenase (LDH) in which the change in absorbance at 340 nm owing to oxidation of NADH was measured using a Benchmark Plus™ microplate spectrophotometer (Bio-Rad Laboratories, Hercules, Calif.). […] Reactions were initiated by the addition of 15 nM of one of the PK enzymes. PK activity proportional to the rate of change at 340 nm was expressed as specific activity (μmol/min/mg), which is defined as the amount of PK that catalyzes the formation of one micromole of either product per minute. Inhibitors were dissolved in DMSO with the final concentration of the solvent never exceeding 1% of the assay volume. IC50 values were calculated by curve fitting on a four-parameter dose-response model with variable slope using Graphpad Prism 5.0™ (GraphPad™ Software Inc., La Jolla, Calif.). In all studies, less than 10% of total PEP was exhausted during the reaction. Reactions were performed at 30° C. for up to 5 min. All values determined represent at least two measurements, in triplicate (Tables 1-6) or duplicate unless mentioned otherwise. […]

SMILES | MIC (S. aureus (ATCC29213)) | IC50 (MRSA Pyk)
ON=C(c1c(CCc2ccc(Cl)cc2)[nH]c2cc(Br)ccc12)C(F)(F)F (racemic) [Compound 46, 1-(6-Bromo-2-(4-chlorophenethyl)-1H-indol-3-yl)-2,2,2-trifluoroethanone Oxime] | 1 µg/mL (≈ 2.24 µM) | > 1000 nM
O=C(c1c(/C=C/c2ccc(Cl)cc2)[nH]c2cc(Br)ccc12)C1CCOCC1 [Compound 1, (E)-(6-Bromo-2-(4-chlorostyryl)-1H-indol-3-yl)(tetrahydro-2H-pyran-4-yl)methanone] | > 64 µg/mL | < 100 nM
O=C(c1c(/C=C/c2ccc(Cl)cc2)[nH]c2cc(Br)ccc12)C1CC1 [Compound 2, (E)-(6-Bromo-2-(4-chlorostyryl)-1H-indol-3-yl)(cyclopropyl)methanone] | 2 µg/mL (≈ 4.99 µM) | < 100 nM
O=C(c1ccccc1)c1c(/C=C/c2ccc(Cl)cc2)[nH]c2cc(Br)ccc12 [Compound 3, (E)-(6-Bromo-2-(4-chlorostyryl)-1H-indol-3-yl)(phenyl)methanone] | 16 µg/mL (≈ 36.6 µM) | < 100 nM
O=C(c1c(CCc2ccc(Cl)cc2)[nH]c2cc(Br)ccc12)C1CCOCC1 [Compound 4, (6-Bromo-2-(4-chlorophenethyl)-1H-indol-3-yl)(tetrahydro-2H-pyran-4-yl)methanone] | 8 µg/mL (≈ 17.9 µM) | < 100 nM
O=C(O)C(F)(F)C(F)(F)C(=O)c1c(/C=C/c2ccc(Cl)cc2)[nH]c2cc(Br)ccc12 [Compound 5, (E)-4-(6-Bromo-2-(4-chlorostyryl)-1H-indol-3-yl)-2,2,3,3-tetrafluoro-4-oxobutanoic Acid] | 32 µg/mL (≈ 63.4 µM) | < 100 nM
CN1CCN(CCC(=O)c2c(/C=C/c3cn4ccccc4n3)[nH]c3cc(Br)ccc23)CC1 [Compound 8, (E)-1-(6-Bromo-2-(2-(imidazo[1,2-a]pyridin-2-yl)vinyl)-1H-indol-3-yl)-3-(4-methylpiperazin-1-yl)propan-1-one] | 64 µg/mL (≈ 130 µM) | 100 to 1000 nM
CN(C)CCC(=O)c1c(/C=C/c2cn3ccccc3n2)[nH]c2cc(Br)ccc12 [Compound 9, (E)-1-(6-Bromo-2-(2-(imidazo[1,2-a]pyridin-2-yl)vinyl)-1H-indol-3-yl)-3-(dimethylamino)propan-1-one] | 32 µg/mL (≈ 73.2 µM) | 100 to 1000 nM
O=C(CCN1CCOCC1)c1c(/C=C/c2cn3ccccc3n2)[nH]c2cc(Br)ccc12 [Compound 10, (E)-1-(6-Bromo-2-(2-(imidazo[1,2-a]pyridin-2-yl)vinyl)-1H-indol-3-yl)-3-morpholinopropan-1-one] | > 64 µg/mL | 100 to 1000 nM
OC(c1c(/C=C/c2ccc(Cl)cc2)[nH]c2cc(Br)ccc12)(C(F)(F)F)C(F)(F)F [Compound 13, (E)-2-(6-Bromo-2-(4-chlorostyryl)-1H-indol-3-yl)-1,1,1,3,3,3-hexafluoropropan-2-ol] | 1 µg/mL (≈ 2.01 µM) | 100 to 1000 nM
OC(c1c(CCc2ccc(Cl)cc2)[nH]c2cc(Br)ccc12)(C(F)(F)F)C(F)(F)F [Compound 14, 2-(6-Bromo-2-(4-chlorophenethyl)-1H-indol-3-yl)-1,1,1,3,3,3-hexafluoropropan-2-ol] | 1 µg/mL (≈ 2 µM) | 100 to 1000 nM
OC(c1c(/C=C/c2ccc(Cl)cc2)[nH]c2cc(Br)ccc12)C(F)(F)F (centres unmarked) [Compound 16, (E)-1-(6-Bromo-2-(4-chlorostyryl)-1H-indol-3-yl)-2,2,2-trifluoroethanol] | 1 µg/mL (≈ 2.32 µM) | < 100 nM
OC(c1c(CCc2ccc(Cl)cc2)[nH]c2cc(Br)ccc12)C(F)(F)F (centres unmarked) [Compound 17] | 2 µg/mL (≈ 4.62 µM) | 100 to 1000 nM
CC(O)(c1c(/C=C/c2ccc(Cl)cc2)[nH]c2cc(Br)ccc12)C(F)(F)F (centres unmarked) [Compound 18, (E)-2-(6-Bromo-2-(4-chlorostyryl)-1H-indol-3-yl)-1,1,1-trifluoropropan-2-ol] | 1 µg/mL (≈ 2.25 µM) | < 100 nM
CN(C)C(=O)c1c(/C=C/c2ccc(Cl)cc2)[nH]c2cc(Br)ccc12 [Compound 21, (E)-6-Bromo-2-(4-chlorostyryl)-N,N-dimethyl-1H-indole-3-carboxamide] | > 64 µg/mL | < 100 nM
O=C(c1c(/C=C/c2ccc(Cl)cc2)[nH]c2cc(Br)ccc12)N1CCOCC1 [Compound 22, (E)-(6-Bromo-2-(4-chlorostyryl)-1H-indol-3-yl)(morpholino)methanone] | > 64 µg/mL | < 100 nM
CN(C)CCN(C)C(=O)c1c(/C=C/c2ccc(Cl)cc2)[nH]c2cc(Br)ccc12 [Compound 24, (E)-6-Bromo-2-(4-chlorostyryl)-N-(2-(dimethylamino)ethyl)-N-methyl-1H-indole-3-carboxamide] | > 64 µg/mL | 100 to 1000 nM
O=C(c1c(/C=C/c2ccc(Cl)cc2)[nH]c2cc(Br)ccc12)N1CCNCC1 [Compound 25, (E)-(6-Bromo-2-(4-chlorostyryl)-1H-indol-3-yl)(piperazin-1-yl)methanone] | 8 µg/mL (≈ 18 µM) | 100 to 1000 nM
O=C(NC1CN2CCC1CC2)c1c(/C=C/c2ccc(Cl)cc2)[nH]c2cc(Br)ccc12 (centres unmarked) [Compound 26, (E)-6-Bromo-2-(4-chlorostyryl)-N-(quinuclidin-3-yl)-1H-indole-3-carboxamide] | 8 µg/mL (≈ 16.5 µM) | 100 to 1000 nM
O=C(NCc1ccccc1)c1c(/C=C/c2ccc(Cl)cc2)[nH]c2cc(Br)ccc12 [Compound 27, (E)-N-Benzyl-6-bromo-2-(4-chlorostyryl)-1H-indole-3-carboxamide] | > 64 µg/mL | < 100 nM
O=C(NCCO)c1c(/C=C/c2ccc(Cl)cc2)[nH]c2cc(Br)ccc12 [Compound 28, (E)-6-Bromo-2-(4-chlorostyryl)-N-(2-hydroxyethyl)-1H-indole-3-carboxamide] | > 64 µg/mL | 100 to 1000 nM
O=C(NCCN1CCC(O)CC1)c1c(/C=C/c2ccc(Cl)cc2)[nH]c2cc(Br)ccc12 [Compound 30, (E)-6-Bromo-2-(4-chlorostyryl)-N-(2-(4-hydroxypiperidin-1-yl)ethyl)-1 H-indole-3-carboxamide] | 16 µg/mL (≈ 31.8 µM) | 100 to 1000 nM
